From the NIST ThermoML archive (doi:10.1016/j.jct.2016.02.008)
± gives the expanded uncertainty stated by the source.

Assays:
[1] = Molar enthalpy of transition or fusion; settings: Crystal; DSC
[2] = Crystal; for Normal melting temperature: DTA; for mass density: 298.15 K, 101.33 kPa, measuring the mass and volume of a pellet
[3] = molar heat capacity at constant pressure; settings: 298.15 K; 101.33 kPa; Crystal; Small sample (50 mg) DSC

Row | Molar enthalpy of transition or fusion [1] [kJ/mol] | Normal melting temperature [2] [°C] | molar heat capacity at constant pressure [3] [J/K/mol] | mass density [2] [kg/m3] | Structure (SMILES)
1 | 21.3 ± 0.5 | 66 ± 0.9 | 192.1 ± 5.3 | – | CC(=O)c1cc2ccccc2o1 [2-acetylbenzofuran]
2 | 31.4 ± 0.69 | 244.6 ± 0.6 | 179 ± 4.6 | 1490 ± 120 | O=C(O)c1cc2ccccc2s1 [benzo[b]thiophene-2-carboxylic acid]
3 | 27.2 ± 0.65 | 196.7 ± 0.6 | 184.8 ± 3.9 | 1340 ± 60 | O=C(O)c1cc2ccccc2o1 [benzofuran-2-carboxylic acid]
4 | 23 ± 0.64 | 210.0 ± 0.8 | 178.4 ± 5.5 | – | O=C(O)c1cc2ccccc2[nH]1 [indole-2-carboxylic acid]
